The values that follow come from patent US20220370453A1 (Storm Therapeutics Ltd, priority 2019, published 2022).

Usually IC50 stands for the concentration needed to halve the response being measured. Low readings indicate greater potency in that assay, high ones weaker potency in that assay.

Test [1] concerns the target T1, BCDIN3D (Homo sapiens, UniProt Q7Z5W3).
T1 sequence (Q7Z5W3 1-292): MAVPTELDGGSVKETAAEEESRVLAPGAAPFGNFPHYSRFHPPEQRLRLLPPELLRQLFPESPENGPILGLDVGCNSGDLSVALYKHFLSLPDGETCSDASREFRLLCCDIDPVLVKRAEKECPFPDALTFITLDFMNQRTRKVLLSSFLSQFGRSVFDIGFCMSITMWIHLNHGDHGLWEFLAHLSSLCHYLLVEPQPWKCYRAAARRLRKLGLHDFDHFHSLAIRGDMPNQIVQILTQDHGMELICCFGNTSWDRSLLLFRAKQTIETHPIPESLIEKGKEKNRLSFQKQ
In words: BCDIN3D IC50 RFMS (RapidFire) assay with mini-helix. The note with it: mini-helix substrate 0.2 μM, SAM 6 μM, 25 nM enzyme. Type of test: biochemical. Put shortly:
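25 nM enzyme preincubated 10 min at room temperature with compound (1% DMSO) in 25 mM Tris pH 8.0, 10 mM DTT, 1 mM EDTA, 0.03% BSA. Reaction started with 0.2 μM mini-helix plus 6 μM SAM, run 1 h at 37 °C, quenched with TCA; SAH product quantified by RapidFire MS against isotopic SAH standards.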

The target of test [2] is T1, BCDIN3D. In words: BCDIN3D InCellPulse thermal stability assay in transfected A549 cells. Type of test: cell-based. Conditions: transiently transfected A549 cells, heat shock 58° C. 15 min. Put shortly: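 A549 cells transiently expressing BCDIN3D N-terminally fused to ePL ProLabel tag, 1500 cells/well, pre-incubated 1 h at 37 °C with compound (0.6% DMSO). Heat shock 58 °C for 15 min; remaining soluble fusion detected by split β-galactosidase complementation luminescence.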

On to `CCn1ncc2c(Nc3ccc(C(F)(F)F)cc3)nc(NCC3(N)CC3)nc21` [Compound 2.48, 6-N-[(1-aminocyclopropyl)methyl]-1-ethyl-4-N-[4-(trifluoromethyl)phenyl]pyrazolo[3,4-d]pyrimidine-4,6-diamine], for which the results for the IC50 against BCDIN3D [1] and against BCDIN3D [2] were 1080 nM and 2430 nM, respectively.
For `[2H]C([2H])([2H])n1ncc2c(Nc3ccc(C(F)(F)F)cc3)nc(NCC3(N)CC3)nc21` [Compound 2.49, N6-[(1-aminocyclopropyl)methyl]-1-(trideuteriomethyl)-N4-[4-(trifluoromethyl)phenyl]pyrazolo[3,4-d]pyrimidine-4,6-diamine] the same measures were 50 nM and 379 nM.
For `[2H]C([2H])([2H])n1ncc2c(Nc3ccc(C(F)(F)F)nc3)nc(NCC3(N)CC3)nc21` [Compound 2.50, N6-[(1-aminocyclopropyl)methyl]-1-(trideuteriomethyl)-N4-[6-(trifluoromethyl)-3-pyridyl]pyrazolo[3,4-d]pyrimidine-4,6-diamine] the same measures were 344 nM and 2980 nM.
In the case of `C#CCCC1(CCOc2ccc(CNc3nc(NCC4(N)CC4)nc4c3cnn4C)cc2Cl)N=N1` [Compound 2.51, 6-N-[(1-aminocyclopropyl)methyl]-4-N-[[4-[2-(3-but-3-ynyldiazirin-3-yl)ethoxy]-3-chlorophenyl]methyl]-1-methylpyrazolo[3,4-d]pyrimidine-4,6-diamine], the IC50 turned out to be 179 nM at BCDIN3D [1] and 252 nM at BCDIN3D [2].
For `Cn1ncc2c(Nc3ccc(C(F)(F)F)cc3)cc(NCC3(N)CC3)nc21` [Compound 2.52, N6-[(1-Aminocyclopropyl)methyl]-1-methyl-N4-[4-(trifluoromethyl)phenyl]pyrazolo[3,4-b]pyridine-4,6-diamine], in that order: 6900 nM and 8890 nM.
For `Cc1ccc(CNc2nc(NCC(C)N)nc3c2cnn3C)cc1Cl` (centres unmarked) [Compound 3.01, 6-N-(2-aminopropyl)-4-N-[(3-chloro-4-methylphenyl)methyl]-1-methylpyrazolo[3,4-d]pyrimidine-4,6-diamine], in that order: 3320 nM and 2280 nM.
For `Cc1ccc(CNc2nc(NC[C@@H](C)N)nc3c2cnn3C)cc1Cl` [Compound 3.04, 6-N-[(2R)-2-aminopropyl]-4-N-[(3-chloro-4-methylphenyl)methyl]-1-methylpyrazolo[3,4-d]pyrimidine-4,6-diamine], in that order: 665 nM and 1450 nM.
Turning to `CC[C@@H](CN)Nc1nc(NCc2ccc(C)c(Cl)c2)c2cnn(C)c2n1` [Compound 3.05], the IC50 on BCDIN3D [1] and at BCDIN3D [2] was 1440 nM throughout.
Regarding `CC[C@H](N)CNc1nc(NCc2ccc(C)c(Cl)c2)c2cnn(C)c2n1` [Compound 3.06, 6-N-[(2S)-2-aminobutyl]-4-N-[(3-chloro-4-methylphenyl)methyl]-1-methylpyrazolo[3,4-d]pyrimidine-4,6-diamine], the IC50 against BCDIN3D [1] is 3420 nM; on BCDIN3D [2] it was 4420 nM.
`CC[C@@H](N)CNc1nc(NCc2ccc(C)c(Cl)c2)c2cnn(C)c2n1` [Compound 3.07, 6-N-[(2R)-2-aminobutyl]-4-N-[(3-chloro-4-methylphenyl)methyl]-1-methylpyrazolo[3,4-d]pyrimidine-4,6-diamine]: the IC50 worked out at 299 nM at BCDIN3D [1] and 664 nM on BCDIN3D [2].
For `Cn1ncc2c(Nc3ccc(C(F)(F)F)cc3)nc(NCC3(N)CCC3)nc21` [Compound 3.08, N6-[(1-aminocyclobutyl)methyl]-1-methyl-N4-[4-(trifluoromethyl)phenyl]pyrazolo[3,4-d]pyrimidine-4,6-diamine], in that order: 50.5 nM and 259 nM.
For `Cn1ncc2c(Nc3ccc(OC(F)F)cc3)nc(NCC3(N)CCC3)nc21` [Compound 3.09, N6-[(1-aminocyclobutyl)methyl]-N4-[4-(difluoromethoxy)phenyl]-1-methyl-pyrazolo[3,4-d]pyrimidine-4,6-diamine] the same measures were 201 nM and 503 nM.
As for `Cn1ncc2c(NC(C)(C)C)nc(NCC(N)C3CCCCC3)nc21` (centres unmarked) [Compound 3.10, N6-(2-amino-2-cyclohexyl-ethyl)-N4-tert-butyl-1-methyl-pyrazolo[3,4-d]pyrimidine-4,6-diamine], the IC50 against BCDIN3D [1] was found to be 228 nM; at BCDIN3D [2] it was 123 nM.
For `Cn1ncc2c(Nc3ccc(C(F)(F)F)cc3)nc(NCC(N)C3CCCCC3)nc21` (centres unmarked) [Compound 3.11, N6-(2-amino-2-cyclohexyl-ethyl)-1-methyl-N4-[4-(trifluoromethyl)phenyl]pyrazolo[3,4-d]pyrimidine-4,6-diamine] the same measures were 101 nM and 65.4 nM.
For `Cn1ncc2c(Nc3ccc(C(F)(F)F)cc3)nc(NCC3(N)CC(F)(F)C3)nc21` [Compound 3.12, 6-N-[(1-amino-3,3-difluorocyclobutyl)methyl]-1-methyl-4-N-[4-(trifluoromethyl)phenyl]pyrazolo[3,4-d]pyrimidine-4,6-diamine], in that order: 479 nM and 1570 nM.
For `Cn1ncc2c(Nc3ccc(C(F)(F)F)cc3)nc(NCC(N)C3CC3)nc21` (centres unmarked) [Compound 3.13, 6-N-(2-amino-2-cyclopropylethyl)-1-methyl-4-N-[4-(trifluoromethyl)phenyl]pyrazolo[3,4-d]pyrimidine-4,6-diamine], in that order: 180 nM and 510 nM.
Take `Cn1ncc2c(Nc3ccc(C(F)(F)F)cc3)nc(NCC3(N)CCOC3)nc21` (centres unmarked) [Compound 3.14, 6-N-[(3-aminooxolan-3-yl)methyl]-1-methyl-4-N-[4-(trifluoromethyl)phenyl]pyrazolo[3,4-d]pyrimidine-4,6-diamine]: the IC50 is 252 nM on BCDIN3D [1] and 2410 nM on BCDIN3D [2].
For `Cn1ncc2c(Nc3ccc(C(F)(F)F)nc3)nc(NCC3(N)CCOC3)nc21` (centres unmarked) [Compound 3.15, N6-[(3-aminotetrahydrofuran-3-yl)methyl]-1-methyl-N4-[6-(trifluoromethyl)-3-pyridyl]pyrazolo[3,4-d]pyrimidine-4,6-diamine], in that order: 1630 nM and 6540 nM.
Regarding `Cn1ncc2c(Nc3ccc(C(F)(F)F)cc3)nc(NCC3COCCN3)nc21` (centres unmarked) [Compound 3.16, 1-methyl-N6-[(morpholin-3-yl)methyl]-N4-[4-(trifluoromethyl)phenyl]-1H-pyrazolo[3,4-d]pyrimidine-4,6-diamine], the IC50 on BCDIN3D [1] came out at 9920 nM; on BCDIN3D [2] it was 60000 nM.
With `Cn1ncc2c(Nc3ccc(C(F)(F)F)cc3)nc(NCC3(N)CCCC3)nc21` [Compound 3.18, 6-N-[(1-aminocyclopentyl)methyl]-1-methyl-4-N-[4-(trifluoromethyl)phenyl]pyrazolo[3,4-d]pyrimidine-4,6-diamine], the IC50 against BCDIN3D [1] is 88 nM; against BCDIN3D [2], 335 nM.
In the case of `Cn1ncc2c(Nc3ccc(C(F)(F)F)nc3)nc(NCC3(N)CCCC3)nc21` [Compound 3.19, 6-N-[(1-aminocyclopentyl)methyl]-1-methyl-4-N-[6-(trifluoromethyl)pyridin-3-yl]pyrazolo[3,4-d]pyrimidine-4,6-diamine], the IC50 at BCDIN3D [1] was 357 nM; against BCDIN3D [2], 1240 nM.
For `Cn1ncc2c(Nc3ccc(OC(F)F)cc3)nc(NCC3(N)CCCC3)nc21` [Compound 3.20, 6-N-[(1-aminocyclopentyl)methyl]-4-N-[4-(difluoromethoxy)phenyl]-1-methylpyrazolo[3,4-d]pyrimidine-4,6-diamine], in that order: 305 nM and 724 nM.
